# Measured values as given in US11226337B2, “Chemoproteomic profiling of protein electrophilic and oxidative post-translational modifications” (Zenagem, LLC, priority 2017, dated 2022).
# What was measured:
# Assay in all cases: SILAC RP-ABPP
# Type in all cases: cell-based
# Settings in all cases: SILAC H/L, HEK293T
# [1] = target: T1, ALDOC Fructosebisphosphate aldolase C (P09972) (Homo sapiens, UniProt P09972)
# T1 construct: shared by both the endogenous and recombinant forms of these proteins; endogenous in cells; host or cells: HEK293T and MDA-MB-231
# T1 sequence (P09972 1-364): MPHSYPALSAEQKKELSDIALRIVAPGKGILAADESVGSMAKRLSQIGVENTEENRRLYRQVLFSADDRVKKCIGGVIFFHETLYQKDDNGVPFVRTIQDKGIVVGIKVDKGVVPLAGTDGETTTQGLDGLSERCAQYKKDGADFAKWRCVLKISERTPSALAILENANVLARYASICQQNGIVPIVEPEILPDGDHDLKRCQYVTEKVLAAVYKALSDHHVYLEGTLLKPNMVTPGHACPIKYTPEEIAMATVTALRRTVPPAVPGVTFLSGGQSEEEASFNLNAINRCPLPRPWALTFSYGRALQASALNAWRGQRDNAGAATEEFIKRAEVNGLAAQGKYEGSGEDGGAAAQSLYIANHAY
# Procedure, shortened: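 Heavy SILAC HEK293T or MDA-MB-231 cells were treated with hydrazine probe 1 (3 mM, 0.5 h); light cells received non-clickable hydrazine 3 at the same concentration (enrichment) or probe plus 10× competitor 3 (competition). Lysates were mixed, clicked to biotin-azide and analysed by LC-MS; values are median heavy:light peptide ratios averaged over ≥3 replicates.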
# [2] = target: T2, IBA57 Putative transferase CAF17 (Q5T440) (Homo sapiens, UniProt Q5T440)
# T2 construct: shared by both the endogenous and recombinant forms of these proteins; endogenous in cells; host or cells: HEK293T and MDA-MB-231
# T2 sequence (Q5T440 40-356): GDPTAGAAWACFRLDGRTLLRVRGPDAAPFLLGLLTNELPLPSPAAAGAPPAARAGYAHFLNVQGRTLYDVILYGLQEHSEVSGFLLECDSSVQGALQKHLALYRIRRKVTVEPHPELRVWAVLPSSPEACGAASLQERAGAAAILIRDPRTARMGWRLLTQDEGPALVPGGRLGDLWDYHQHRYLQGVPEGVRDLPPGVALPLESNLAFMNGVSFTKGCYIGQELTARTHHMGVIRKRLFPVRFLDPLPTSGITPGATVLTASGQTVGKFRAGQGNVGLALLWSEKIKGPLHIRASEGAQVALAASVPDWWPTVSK
# [3] = target: T3, NT5DC2 5nucleotidase domaincontaining (Q9H857) (Homo sapiens, UniProt Q9H857)
# T3 construct: shared by both the endogenous and recombinant forms of these proteins; endogenous in cells; host or cells: HEK293T and MDA-MB-231
# T3 sequence (Q9H857 1-520): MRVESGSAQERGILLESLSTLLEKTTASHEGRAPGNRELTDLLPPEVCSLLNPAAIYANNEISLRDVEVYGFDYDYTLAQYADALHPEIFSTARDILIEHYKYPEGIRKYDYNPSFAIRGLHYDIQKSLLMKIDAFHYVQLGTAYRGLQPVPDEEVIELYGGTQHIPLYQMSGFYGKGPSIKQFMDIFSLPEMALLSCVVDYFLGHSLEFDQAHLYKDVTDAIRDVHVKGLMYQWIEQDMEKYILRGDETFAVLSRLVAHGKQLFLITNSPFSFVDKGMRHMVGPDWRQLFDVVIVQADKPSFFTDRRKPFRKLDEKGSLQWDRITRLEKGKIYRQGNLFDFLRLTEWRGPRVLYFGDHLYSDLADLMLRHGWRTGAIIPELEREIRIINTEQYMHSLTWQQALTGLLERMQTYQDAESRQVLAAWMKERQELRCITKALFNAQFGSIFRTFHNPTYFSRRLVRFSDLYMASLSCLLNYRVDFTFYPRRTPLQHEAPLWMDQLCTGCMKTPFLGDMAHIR
enrichment ratioavg ([1]; probe 2 1 mM 0.5 h vs probe 4),competition ratioavg ([1]; probe 2 vs probe 2+10x probe 4),enrichment ratioavg ([2]; probe 2 1 mM 0.5 h vs probe 4),competition ratioavg ([2]; probe 2 vs probe 2+10x probe 4),enrichment ratioavg ([3]; probe 2 1 mM 0.5 h vs probe 4),competition ratioavg ([3]; probe 2 vs probe 2+10x probe 4),SMILES,enrichment ratioavg ([1]; probe 1 3 mM 0.5 h vs probe 3),competition ratioavg ([1]; probe 1 vs probe 1+10x probe 3),enrichment ratioavg ([2]; probe 1 3 mM 0.5 h vs probe 3),competition ratioavg ([2]; probe 1 vs probe 1+10x probe 3),enrichment ratioavg ([3]; probe 1 3 mM 0.5 h vs probe 3),competition ratioavg ([3]; probe 1 vs probe 1+10x probe 3)
14,5,9,4,16,4,"C#CCCNC(=O)c1ccc(NN)cc1.Cl [probe 2, N-(but-3-yn-1-yl)-4-hydrazinylbenzamide hydrochloride]",–,–,–,–,–,–
–,–,–,–,–,–,"C#CCNN.Cl [probe 1, prop-2-yn-1-ylhydrazine hydrochloride]",16,3,14,3,11,3
